Data set [1] addresses T1, Parathyroid hormone/parathyroid hormone-related peptide receptor (Homo sapiens, UniProt Q03431).
T1 sequence (Q03431 whole entry): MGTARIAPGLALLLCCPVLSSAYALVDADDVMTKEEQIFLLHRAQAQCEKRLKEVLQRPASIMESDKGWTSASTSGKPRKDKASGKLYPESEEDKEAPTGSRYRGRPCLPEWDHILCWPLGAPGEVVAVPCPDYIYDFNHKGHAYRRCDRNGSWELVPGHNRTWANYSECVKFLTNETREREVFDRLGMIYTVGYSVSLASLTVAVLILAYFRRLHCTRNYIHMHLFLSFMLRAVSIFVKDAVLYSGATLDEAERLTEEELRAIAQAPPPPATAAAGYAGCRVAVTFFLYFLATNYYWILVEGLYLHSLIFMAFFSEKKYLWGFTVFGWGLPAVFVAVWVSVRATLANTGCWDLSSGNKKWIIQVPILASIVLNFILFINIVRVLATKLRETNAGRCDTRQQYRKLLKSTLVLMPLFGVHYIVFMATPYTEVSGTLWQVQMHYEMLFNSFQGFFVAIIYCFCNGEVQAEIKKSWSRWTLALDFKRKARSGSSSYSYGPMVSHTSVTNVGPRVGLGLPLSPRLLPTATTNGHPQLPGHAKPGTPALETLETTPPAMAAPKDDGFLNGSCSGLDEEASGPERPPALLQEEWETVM
Description: Antagonist activity at human PTHR1 expressed in CHOK1 cells co-expressing Gs/Gq assessed as reduction in human PTH (1 to 34 residues)-induced cAMP accumulation incubated for 30 mins by HTRF assay

A further data set is described as follows: physchem. The conditions noted are these: 1-octanol/phosphate buffered saline, pH 7.4.
The nature of data set [2]: Solubility of the compound in JP1 buffer at pH 1.2. Type of data set: physicochemical.
Data set [3] can be described thus: Solubility of the compound in JP2 buffer at pH 6.8. In kind it is physicochemical.
A short description of data set [4]: Protein binding in rat plasma assessed as unbound fraction. In kind it is ADME, cell-free.
Data set [5] can be described thus: Clearance in Sprague-Dawley rat at 1 mg/kg, iv. Type of data set: ADME, organism-based. The conditions noted are these: in vivo.
A short description of data set [6]: Volume of distribution in Sprague-Dawley rat at 1 mg/kg, iv. The conditions noted are these: in vivo. Type of data set: ADME, organism-based.
A short description of data set [7]: Half life in Sprague-Dawley rat at 10 mg/kg, po. In kind it is ADME, organism-based. To be noted: in vivo.
The nature of data set [8]: AUClast in Sprague-Dawley rat at 10 mg/kg, po. Type of data set: ADME, organism-based. Set-up: dose 10 mg/kg, time 0 - last, route oral. To be noted: in vivo.
Data set [9] in a line: Oral bioavailability in Sprague-Dawley rat at 10 mg/kg. Type of data set: ADME, organism-based. The conditions noted are these: in vivo.
A short description of the next data set: in vitro. The conditions noted are these: rat, liver microsomes. A general note: Liver microsomes are a subcellular fraction often used to study metabolism.

Structures are written as SMILES. Converted amounts (≈) assume the structure as drawn.

The values below come from ChEMBL document CHEMBL4385663, “Discovery of novel PTHR1 antagonists: Design, synthesis, and structure activity relationships” (Bioorg Med Chem Lett, 2019).

Description for in vitro: Metabolic stability in rat liver microsomes assessed as parent compound remaining after 0.5 hrs
Description for physchem: Distribution coefficient, log D of the compound in 1-octanol and phosphate buffered saline at pH 7.4

In data set [1], `CC1(C)N=C(C2CCCCC2)c2ccc(C#N)cc2N(c2ccc(NCCCN)cc2)C1=O` gave an IC50 of 4.1 µM.
Take `CC1(C)N=C(C2CCCCC2)c2ccc(C#N)cc2N(c2ccc(NCCNC3CCN(S(C)(=O)=O)CC3)cc2)C1=O`: the half-inhibitory concentration (IC50) in data set [1] was 0.18 µM. Compared with the last molecule, the IC50 is about 23-fold lower.
The molecule `CC1(C)N=C(C2CCCCC2)c2ccc(C#N)cc2N(c2ccc(NCCN)cc2)C1=O` displayed an IC50 in data set [1] of 0.73 µM. The molecule further showed a logD in the data set “physchem” of 2.1.
In the case of `NCCNc1ccc(N2C(=O)CN(C3CCCCC3)C(=O)c3ccc(Cl)cc32)cc1`, in [1], the IC50 is over 100 µM.
Still for that read-out and setting: the result for `CC1(C2=NC(C)(C)C(=O)N(c3ccc(NCCN)cc3)c3cc(Cl)ccc32)CCCCC1` reads 16 µM.
`NCCNc1ccc(N2C(=O)CN=C(C3CCCCC3)c3ccc(Cl)cc32)cc1` showed an IC50 in [1] of 38 µM. The logD in the data set “physchem” stood at 1.7.
For `CC(C)N1N=C(C2CCCCC2)c2ccc(Cl)cc2N(c2ccc(CC3=NCCN3)cc2)C1=O` the same measures were 9.4 µM and 4.2.
Turning to `NCCNc1ccc(N2C(=O)CN(C3CCCCC3)Cc3ccc(Cl)cc32)cc1`, the IC50 in data set [1] was over 100 µM. In the data set “physchem”, the logD came to 1.4.
`COc1ccc2c(c1)N(c1ccc(NCCN)cc1)C(=O)C(C)(C)N=C2C1CCCCC1`: the IC50 in data set [1] was found to be 14 µM.
Still for that read-out and setting: with `CC1(C)N=C(C2CCCCC2)c2ccc(C#N)cc2N(c2ccc(OCCN)cc2)C1=O` the figure was 4 µM; with `Cc1ccc2c(c1)N(c1ccc(NCCN)cc1)C(=O)C(C)(C)N=C2C1CCCCC1`, 6.1 µM.
In [1], `CC(C)CC1=NC(C)(C)C(=O)N(c2ccc(NCCN)cc2)c2cc(Cl)ccc21` came in with an IC50 of 23 µM.
In the case of `CC1(C)N=C(C2CCCCC2)c2ccc(C#N)cc2N(c2ccc(NCCNC3CCOCC3)cc2)C1=O`, the values for the solubility in data set [2] and in [3] were 760 µg/mL (≈ 1480 µM) and 500 µg/mL (≈ 973 µM), respectively. Moreover, in data set [4], the fraction unbound worked out at 0.029. In data set [5], this molecule yielded a clearance of 46.8 mL/min/kg. In addition, the Vd in data set [6] amounted to 4.7 L/kg. The half-life in [7] is 4.23 h. The AUC(0-t) in data set [8] came to 1940 ng·h/mL. In data set [9], this molecule returned a bioavailability of 27%. 0.09 µM corresponded to half-maximal inhibition in data set [1] (IC50). This molecule came in with a logD in “physchem” of 2.9. Also, in “in vitro”, the amount remaining at 0.5 h is 28%.
Take `CN(C)C1N=C(C2CCCCC2)c2ccc(Cl)cc2N(c2ccc(NCCN)cc2)C1=O` (stereo not drawn): it took 44 µM to reach half-maximal inhibition in [1] (IC50).
On the same count and under the same terms, the result for `CC1(C)N=C(c2ccccc2)c2ccc(Cl)cc2N(c2ccc(NCCN)cc2)C1=O` reads 45 µM; that for `CC1(C)N=C(C2CCCCC2)c2ccc(C#N)cc2N(c2ccc(CCCN)cc2)C1=O`, 7.6 µM.
The same measure, in the same setting: the result for `CC(C)C1(C)N=C(C2CCCCC2)c2ccc(Cl)cc2N(c2ccc(NCCN)cc2)C1=O` (stereo not drawn) reads 6.8 µM; that for `CC1(C)N=C(C2CCCCC2)c2ccc(C#N)cc2N(c2ccc(NCCNC3CCCCC3)cc2)C1=O`, 2.3 µM; that for `CC(C)C1N=C(C2CCCCC2)c2ccc(Cl)cc2N(c2ccc(NCCN)cc2)C1=O` (stereo not drawn), 14 µM.

For orientation: IC50 means the midpoint of a concentration-inhibition curve. Low readings indicate greater potency, high ones weaker potency. A word on the logD: it is the decadic logarithm of the distribution of all forms, ionised or not, between an organic phase and buffer at a given pH. A low value points to lower lipophilicity. What is called solubility is the concentration that dissolves in the medium under given conditions. Low readings indicate a poorly soluble substance, high ones a readily soluble substance. A word on the fraction unbound: it is free concentration divided by total concentration. The clearance is a measure of how efficiently the substance is removed, as volume per time. Lower therefore signals inefficient removal. As usually defined, the Vd is the apparent volume that relates the amount in the body to the concentration in plasma or blood. A lower Vd goes with confinement near the circulation. In general, half-life refers to how long it takes for the measured level to halve. A higher half-life goes with slow decline. In general, AUC(0-t) refers to the area under the concentration-time curve up to a stated or last time point. Higher therefore signals high exposure. A word on the bioavailability: it is dose-corrected exposure relative to a reference, in per cent. Read a low bioavailability as poor availability. For orientation: share remaining means the share of the starting amount still present when the sample was taken. Higher therefore signals less turnover.
